Assay results as given in patent US20230181614A1, “ADMINISTRATION OF CITICOLINE TO IMPROVE COGNITIVE PERFORMANCE, ATTENTIONAL PERFORMANCE, AND MOTOR FUNCTION” (KYOWA HAKKO BIO CO., LTD., priority 2014, published 2023).

Assays:
[1] = tested on: Healthy subjects, ages 13-18; assay: Finger Tap Test (motor speed and control); type: in vivo, human; settings: for V3-V1 Finger Tap Test Mean Dominant Hand, Mean / V3-V1 Finger Tap Test Mean Non-Dominant Hand, Mean: Visit difference score; for Finger Tap Test Mean Dominant Hand V3, Mean / Finger Tap Test Mean Non-Dominant Hand V3, Mean: Visit 3; for Finger Tap Test Mean Dominant Hand, Mean / Finger Tap Test Mean Non-Dominant Hand, Mean: 250 mg/day
Experimental: The citicoline-treated group (N=51) were administered 250 mg/day (N=24) or 500 mg/day (N=27). Three finger tap tests were administered over a period of 28 days to measure motor speed and control. Results are expressed as mean ± SD. Statistical analysis was performed using Student’s t test. The p<0.05 was considered statistically significant. Study participants were screened by telephone prior to study enrollment. Healthy subjects, ages 13-18, with no significant medical conditions and no history of co-morbid psychiatric disorder, current Axis I or II diagnosis, or previous participation in a pharmacotherapeutic trial, were selected. Use of any psychotropic medication or any previous head injury resulting in loss of consciousness for 5 or more minutes were used as exclusion criteria. While no participant met criteria for a neuropsychiatric disorder at enrollment, clinical assessments were still completed throughout the study to evaluate changes in mood state. In addition, self-reports of sleep habits, lifestyle, and exercise routines were also administered at baseline as well as at each study visit to assess changes in health habits during study participation. Following the completion of Visit 1 assessment, participants were given their 28-day supply of citicoline (250 mg or 500 mg) or placebo, which was randomly assigned. They were instructed to take one capsule a day every day for the next 28 days. Visit 2 occurred fourteen days after Visit 1. At Visit 2, the remaining study pills were counted and participant dosage calendars were checked to ensure compliance with the protocol. Additional neuropsychological measures and clinical assessments were administered during this visit. Participants returned for Visit 3 fourteen days later, on the 28th day of their study participation. The pill bottle and the dosage calendar were collected from each participant. Urine and blood were again obtained. Participants also participated in similar clinical and neuropsychological testing and clinical measures that were given during visit 1. The finger tap test is used to measure motor speed and control. It is a common assessment measure administered by neuropsychologists to detect cognitive impairment. During the finger tap test, the participant is instructed to use his/her index finger to press a lever attached to a mechanical counter as many times as s/he can within the designated time period. The participant is instructed to move only their index finger, not the entire hand. The same process is completed using the index finger of the dominant and non-dominant hand. The finger tap test was administered at each of the three visits.

[2] = tested on: Healthy subjects, ages 13-18; assay: Wisconsin Card Sorting Task (WCST); type: in vivo, human; settings: Visit 3
Excerpt: Study participants were screened by telephone prior to study enrollment. Healthy subjects, ages 13-18, with no significant medical conditions and no history of co-morbid psychiatric disorder, current Axis I or II diagnosis, or previous participation in a pharmacotherapeutic trial, were selected. Use of any psychotropic medication or any previous head injury resulting in loss of consciousness for 5 or more minutes were used as exclusion criteria. While no participant met criteria for a neuropsychiatric disorder at enrollment, clinical assessments were still completed throughout the study to evaluate changes in mood state. In addition, self-reports of sleep habits, lifestyle, and exercise routines were also administered at baseline as well as at each study visit to assess changes in health habits during study participation. Following the completion of Visit 1 assessment, participants were given their 28-day supply of citicoline (250 mg or 500 mg) or placebo, which was randomly assigned. They were instructed to take one capsule a day every day for the next 28 days. Visit 2 occurred fourteen days after Visit 1. At Visit 2, the remaining study pills were counted and participant dosage calendars were checked to ensure compliance with the protocol. Additional neuropsychological measures and clinical assessments were administered during this visit. Participants returned for Visit 3 fourteen days later, on the 28th day of their study participation. The pill bottle and the dosage calendar were collected from each participant. Urine and blood were again obtained. Participants also participated in similar clinical and neuropsychological testing and clinical measures that were given during visit 1. The WCST assess a person’s ability to form abstract concepts, utilize feedback, and to shift and maintain set. […] The WCST involves 4 stimulus cards that vary in color, geometric form, and number. Without knowing the criterion, participants are asked to match cards from a deck to the stimulus cards. After the participant places each card, they are told whether they are correct or incorrect and should change the element they are matching based on this feedback. […] The WCST was given on the third visit of the study.

C[N+](C)(C)CCOP(=O)(O)OP(=O)([O-])OC[C@H]1O[C@@H](n2ccc(N)nc2=O)[C@H](O)[C@@H]1O [citicoline, Cytidine 5′-diphosphocholine]
V3-V1 Finger Tap Test Mean Dominant Hand, Mean ([1]; 250 mg/day group): 4.87 | V3-V1 Finger Tap Test Mean Non-Dominant Hand, Mean ([1]; 250 mg/day group): 2.49 | Finger Tap Test Mean Dominant Hand V3, Mean ([1]; 250 mg/day group): 51.59 | Finger Tap Test Mean Non-Dominant Hand V3, Mean ([1]; 250 mg/day group): 47.01 | Finger Tap Test Mean Dominant Hand, Mean ([1]; V1 (baseline)): 46.72 | Finger Tap Test Mean Non-Dominant Hand, Mean ([1]; V1 (baseline)): 44.52 | Finger Tap Test Mean Dominant Hand, Mean ([1]; V3 (day 28)): 51.59 | Finger Tap Test Mean Non-Dominant Hand, Mean ([1]; V3 (day 28)): 47.01 | Finger Tap Test Mean Dominant Hand V1, Mean ([1]; 500 mg/day group, Visit 1): 49.44 | Finger Tap Test Mean Non-Dominant Hand V1, Mean ([1]; 500 mg/day group, Visit 1): 44.89 | V3-V1 Finger Tap Test Mean Dominant Hand, Mean ([1]; 500 mg/day group): 2.61 | V3-V1 Finger Tap Test Mean Non-Dominant Hand, Mean ([1]; 500 mg/day group): 2.21 | Finger Tap Test Mean Dominant Hand V3, Mean ([1]; 500 mg/day group): 52.05 | Finger Tap Test Mean Non-Dominant Hand V3, Mean ([1]; 500 mg/day group): 47.10 | WCST V3 Number of Categories Achieved (Mean) ([2]; 250 mg/day group): 5.69 | WCST V3 Number of Trials to Complete Category (Mean) ([2]; 250 mg/day group): 71.15 | WCST V3 Number of Trials to Get into Category (Mean) ([2]; 250 mg/day group): 15.19 | WCST V3 Total Cards Used (Mean) ([2]; 250 mg/day group): 90.88 | WCST V3 Total Errors (Mean) ([2]; 250 mg/day group): 19.73 | WCST V3 Total Perseverative Errors (Mean) ([2]; 250 mg/day group): 8.54 | WCST V3 Number of Categories Achieved (Mean) ([2]; 500 mg/day group): 5.87 | WCST V3 Number of Trials to Complete Category (Mean) ([2]; 500 mg/day group): 70.57 | WCST V3 Number of Trials to Get into Category (Mean) ([2]; 500 mg/day group): 13.78 | WCST V3 Total Cards Used (Mean) ([2]; 500 mg/day group): 89.57 | WCST V3 Total Errors (Mean) ([2]; 500 mg/day group): 19.00 | WCST V3 Total Perseverative Errors (Mean) ([2]; 500 mg/day group): 9.13
